How the values were obtained:
[1] = tested on: SH SY5Y cells; experiment: Cell viability assay for amyloid toxicity using MTT reduction; assay type: cell-based; conditions: protection of SH SY5Y cells from a toxic insult of 10µM Aβ(1-42), MTT reduction as measure of cell viability, 24 h incubation
Method: Aβ(1-42) was prepared for amyloid aggregation and toxicity assays by dissolving Aβ(1-42) HCl salt in hexafluoroisopropanol (HFIP), with brief sonication and vortexing. This solution of the Aβ(1-42) peptide in HFIP was stored at 4°C @ 2mM. When required, an aliquot of this stock solution was freeze-dried and dissolved in DMSO to 200 times the required final assay concentration (e.g. 2mM for a final assay concentration of 10 µM).
A 20mM stock solution of each test compound was prepared in DMSO, and aliquots of these solutions were used to prepare further stock solutions of each test compound in DMSO, ranging in concentration from 3µM up to 10mM. These stock solutions were prepared for use as and when required and stored at -20°C (maximum of 3 freeze-thaw cycles). The 20mM parent stock solutions were stored frozen at -20 °C.
The activity of compounds in protecting SH SY5Y cells from a toxic insult of 10µM Aβ(1-42) was assessed by using inhibition of MTT reduction as a measure of cell viability. An aliquot (3µl) of test compound [various concentrations] in DMSO is added to 294 µl of Opti-Mem (containing 2% FBS, 1% Pen/Strep, 1% L-Gln) {daughter plate}. The well is mixed thoroughly. Then an aliquot (3 µl) of Aβ(1-42) [2mM] is added to the daughter plate wells and again mixed thoroughly. 50 µl is then aspirated and dispensed into wells containing 50 µl media + SH SY5Ycells (cells are also plated in Opti-Mem, at ∼ 30,000 cells/well/50 µl). […]
Cell plates are incubated for 24 h and then the MTT assay (Shearman, 1999), is performed. […] The plate was shaken and the absorbance was recorded at both 570 nm and 650 nm. ΔA values were calculated by subtracting absorbance at 650 nm from absorbance at 570 nm, to reduce non-specific background absorbance. ΔA values from equivalent experiments were averaged and % cell viability was determined as follows: % cell viability = ([ΔA(sample)-ΔA(deal cell control)] x 100%)/([ΔA(live cell control)-ΔA(dead cell control)]) [formula] • Live cell controls: 1% DMSO in Opti-Mem • Dead cell controls: 0.1% Triton X-100 added to cells […]

[2] = tested on: rat hippocampal brain slices; experiment: Long-term potentiation (LTP) in hippocampal brain slices, Aβ(1-42)-induced depression of LTP; conditions: compound at 3µM, Schaffer collateral stimulation
Method: Long-term potentiation (LTP) is a natural, prolonged electrophysiological response associated with the neurological processes of learning and short-term memory, which are affected in Alzheimer's disease. […] LTP was measured using stimulation of Schaffer collaterals in rat hippocampal brain slices, as described below.
20µL of 5mM Example 1 in DMSO was added to the stock Aβ(1-42) (1mL) and agitated at 37°C for 24hr. On the experimental day the mixture is diluted to 33mL in aCSF (32mL) immediately prior to use. The final concentration of Example 1 was 3µM. The final concentration of Aβ(1-42) was 1µM and the final concentration of DMSO was 0.06% […]
Schaffer collaterals were stimulated (3-22V, 0.1ms pulse width, 0.03Hz) with a concentric bipolar electrode and the evoked extracellular field excitatory postsynaptic potentials (fEPSPs) were recorded via an Axoclamp 2A amplifier from the stratum radiatum of the CA1 region of the hippocampus with a glass capillary microelectrode filled with 4M NaCl (resistance 2-4 MΩ). […] A 10 minute stable baseline period (control) was recorded followed by administration of test compound 10 minutes prior to high frequency stimulation (1sec 100Hz train) applied three times at 10 minute intervals with an 80 minute wash of test compound after the final high frequency stimulation protocol. […]

| SMILES | IC50 ([1]; Homo sapiens) | IC50 [1] | toxic effect of 1µM Aβ(1-42) on LTP [2] |
| --- | --- | --- | --- |
| Fc1ccc2c(c1)N(c1ncc(Oc3cccc(N4CCOCC4)c3)cn1)CCO2 [Example 2, 6-Fluoro-4-[5-(3-morpholinophenoxy)pyrimidin-2-yl]-3,4-dihydro-2H-benzo[1,4]oxazine] | 26 µM |  |  |
| Oc1cccc(Nc2ccc(Nc3cccc(O)c3)nn2)c1 [RS-0406, reference compound] |  | 35 µM |  |
| Fc1cccc2c1OCCN2c1ncc(Oc2cccc(N3CCOCC3)c2)cn1 [Example 1, 8-Fluoro-4-[5-(3-morpholinophenoxy)pyrimidin-2-yl]-3,4-dihydro-2H-benzo[1,4]oxazine] | 23 µM |  | effectively blocked |

From patent EP2571872B1, “COMPOUNDS” (Treherne, Johnathan Mark, priority 2010, dated 2011)
